Experimental findings from US9980943B2, “Methods of treating muscular dystrophy” (BOARD OF REGENTS OF THE NEVADA SYSTEM OF HIGHER EDUCATION, …, priority 2013, dated 2018) are described below.

Structures are written as SMILES.

Common to all, as to format: cell-based, mouse
Experiment [1] concerns α7 integrin (LacZ reporter in α7βgal+/− myoblasts). Kind of experiment: Myoblast α7+/LacZ integrin FDG assay (Burkin assay in myoblasts, 96-well). The following applies: 96-well; for Burkin Assay in Myoblasts, signal relative to DMSO: α7+/LacZ myoblasts; for Burkin Assay in Myoblasts, value relative to DMSO: SU9516 analogs, N=3-6.
Experiment [2] deals with α7 integrin (LacZ reporter in α7+/LacZ myotubes). Nature of the experiment: Myotube α7 integrin FDG assay (Burkin assay in myotubes, 96-well). The following applies: for Burkin Assay in Myotubes, value relative to DMSO: SU9516 analogs, 96-well, N=3-6.
Experiment [3] relates to β-galactosidase in CMV-LacZ C2C12 myoblasts. Nature of the experiment: CMV-LacZ secondary screen in C2C12 myoblasts (β-Gal stabilizing assay). Particulars: for CMV-LACZ in Myoblasts (β-galactosidase activity relative to DMSO): CMV-LacZ C2C12 myoblasts; for CMV-LACZ in Myoblasts, value relative to DMSO: SU9516 analogs, C2C12 CMV-LacZ, N=2. The procedure, abridged:
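Stable CMV-LacZ C2C12 clone; six-point curve 0.5–40 μM; duplicates.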

For experiment [4], the system named is β-galactosidase in CMV-LacZ C2C12 myotubes. Kind of experiment: CMV-LacZ secondary screen in C2C12 myotubes (β-Gal stabilizing assay). Particulars: for CMV-LACZ in Myotubes, signal relative to DMSO: C2C12 CMV-LacZ myotubes, fold relative to DMSO; for CMV-LACZ in Myotubes, value relative to DMSO: SU9516 analogs, C2C12 CMV-LacZ, N=2. The procedure, abridged:
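A secondary screen identifies compounds that stabilize β-gal independently of the native promoter, using CMV-LacZ C2C12 cells. Curves span 0.5–40 μM at six levels, in duplicate.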

Turning to `O=C(CNC(=O)c1cccc(F)c1)N/N=C/c1cc(Br)ccc1OCc1ccccc1` [MLS000591667-01], the “Burkin Assay in Myoblasts, signal relative to DMSO” value in experiment [1] (0.5 uM) worked out at 0.9901; in experiment [1] (1 uM), 1.034; in experiment [1] (5 uM), 1.132; in experiment [1] (10 uM), 1.088; in experiment [1] (20 uM), 0.8623; in experiment [1] (40 uM), 1.1351. The “Burkin Assay in Myotubes, α7 integrin LacZ reporter signal relative to DMSO” value in experiment [2] (0.5 uM) is recorded as 1.005; in experiment [2] (1 uM), 1.1434; in experiment [2] (5 uM), 1.072; in experiment [2] (10 uM), 0.9986; in experiment [2] (20 uM) it was 0.6781; in experiment [2] (40 uM), 0.6965. For the same compound, the “CMV-LACZ in Myoblasts (β-galactosidase activity relative to DMSO)” value in experiment [3] (0.5 uM) was determined as 0.9491; in experiment [3] (1 uM), 0.7850; in experiment [3] (5 uM), 1.1587; in experiment [3] (10 uM), 1.1592; in experiment [3] (20 uM), 0.8030; in experiment [3] (40 uM), 1.0593. In addition, the “CMV-LACZ in Myotubes, signal relative to DMSO” value in experiment [4] (0.5 uM) came out at 0.8600; in experiment [4] (1 uM) it was 1.0726; in experiment [4] (5 uM) it was 1.0824; in experiment [4] (10 uM), 1.0152; in experiment [4] (20 uM), 0.8929; in experiment [4] (40 uM) it was 0.8800.

`Cc1cc(C)c(/C=C2\C(=O)Nc3ccccc32)[nH]1` [NCGC00094381-03]: the “Burkin Assay in Myoblasts, value relative to DMSO” value is listed as 0.9368 in experiment [1] (0.5 uM); 0.9952 in experiment [1] (1 uM); 0.7327 in experiment [1] (5 uM); 0.6579 in experiment [1] (10 uM); 0.6668 in experiment [1] (20 uM); 0.5203 in experiment [1] (40 uM). Besides, the “Burkin Assay in Myotubes, value relative to DMSO” value stood at 0.8564 in experiment [2] (0.5 uM); 0.9334 in experiment [2] (1 uM); 0.9015 in experiment [2] (5 uM); 1.024 in experiment [2] (10 uM); 0.9497 in experiment [2] (20 uM); 1.151 in experiment [2] (40 uM). Besides, the “CMV-LACZ in Myoblasts, value relative to DMSO” value in experiment [3] (0.5 uM) is on record as 0.9504; in experiment [3] (5 uM), 0.8667; in experiment [3] (10 uM) it was 1.0089; in experiment [3] (20 uM), 0.7777; in experiment [3] (40 uM) it was 1.0253. For the same compound, the “CMV-LACZ in Myotubes, value relative to DMSO” value in experiment [4] (0.5 uM) came to 0.9227; in experiment [4] (1 uM) it was 1.2227; in experiment [4] (5 uM), 1.1125; in experiment [4] (10 uM), 1.5444; in experiment [4] (20 uM) it was 10.9800; in experiment [4] (40 uM), 18.6030.

`CC(O)CNc1nc2c(c(=O)n(Cc3ccc(Br)cc3)c(=O)n2C)n1C` (centres unmarked) [MLS001212319-01]: the “Burkin Assay in Myoblasts, signal relative to DMSO” value in experiment [1] (0.5 uM) was 1.05; in experiment [1] (1 uM), 1.026; in experiment [1] (5 uM) it was 0.9412; in experiment [1] (10 uM), 0.8826; in experiment [1] (20 uM), 0.8529; in experiment [1] (40 uM), 0.782. Further, the “Burkin Assay in Myotubes, α7 integrin LacZ reporter signal relative to DMSO” value in experiment [2] (0.5 uM) came out at 1.134; in experiment [2] (1 uM), 1.139; in experiment [2] (5 uM), 0.9476; in experiment [2] (10 uM) it was 0.9201; in experiment [2] (20 uM) it was 0.7396; in experiment [2] (40 uM), 0.631. Also, the “CMV-LACZ in Myoblasts (β-galactosidase activity relative to DMSO)” value was determined as 0.9129 in experiment [3] (0.5 uM); 1.2040 in experiment [3] (1 uM); 1.0840 in experiment [3] (5 uM); 0.8600 in experiment [3] (10 uM); 1.2056 in experiment [3] (20 uM); 1.0259 in experiment [3] (40 uM). For the same compound, the “CMV-LACZ in Myotubes, signal relative to DMSO” value is on record as 1.1524 in experiment [4] (0.5 uM); 0.8152 in experiment [4] (1 uM); 0.9525 in experiment [4] (5 uM); 0.9253 in experiment [4] (10 uM); 0.9965 in experiment [4] (20 uM); 1.0706 in experiment [4] (40 uM).

Turning to `Cc1ccccc1NC(=O)c1ccc2c(O)c(S(=O)(=O)c3ccccc3)c(=O)[nH]c2c1` [MLS001122698-01], the “Burkin Assay in Myoblasts, signal relative to DMSO” value in experiment [1] (0.5 uM) turned out to be 0.9829; in experiment [1] (1 uM), 0.8573; in experiment [1] (5 uM), 1.008; in experiment [1] (10 uM) it was 0.9652; in experiment [1] (20 uM), 0.9061; in experiment [1] (40 uM) it was 0.8389. Besides, the “Burkin Assay in Myotubes, α7 integrin LacZ reporter signal relative to DMSO” value in experiment [2] (0.5 uM) is on record as 0.9131; in experiment [2] (1 uM) it was 0.9039; in experiment [2] (5 uM), 0.9575; in experiment [2] (10 uM), 1.03; in experiment [2] (20 uM), 0.9209; in experiment [2] (40 uM) it was 0.8572. Moreover, the “CMV-LACZ in Myoblasts (β-galactosidase activity relative to DMSO)” value is listed as 1.1513 in experiment [3] (0.5 uM); 1.1003 in experiment [3] (1 uM); 0.7759 in experiment [3] (5 uM); 0.8608 in experiment [3] (10 uM); 1.0404 in experiment [3] (20 uM); 1.0639 in experiment [3] (40 uM). For the same compound, the “CMV-LACZ in Myotubes, signal relative to DMSO” value in experiment [4] (0.5 uM) turned out to be 1.0019; in experiment [4] (1 uM) it was 1.0133; in experiment [4] (5 uM), 1.2038; in experiment [4] (10 uM), 1.1482; in experiment [4] (20 uM) it was 1.0340; in experiment [4] (40 uM), 1.0110.
